Source: patent US10231956B2, “3-(1H-pyrrolo[3,2-C]pyridin-2-YL)-1 H-pyrazolo[4,3-B]pyridines and therapeutic uses thereof” (Samumed, LLC, priority 2015, dated 2019)
Each block holds one compound with its values, some of them ahead of it.

Experiments:
Format in all cases: cell-based
[1] = tested on: Wnt activity (Sp5-Luc reporter, SW480 colon carcinoma cells); assay: Sp5-Luc reporter gene screening assay for Wnt activity in SW480 cells; conditions: Homo sapiens; for EC50: luminescence, overnight incubation
How it was run: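 Wnt-driven firefly luciferase in SW480 colon carcinoma cells reports pathway activity after overnight compound exposure (10 μM top concentration, 3-fold steps). Signal is normalized to DMSO controls.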

[2] = tested on: primary human mesenchymal stem cells (hMSCs); assay: Induction of chondrogenesis in primary human mesenchymal stem cells (nodule count); conditions: 144 h, 6 days; for Emax: TGF-β3 10 ng/mL as positive control, read-out: Max. Activity as % TGF-β3 activity; for EC50: concentration required to induce 50% levels of chondrogenesis vs TGF-β3, read-out: Conc (nM) of 50% TGF-β3 activity
Method: Representative compounds were screened using primary human mesenchymal stem cells (hMSCs) to determine their ability to induce chondrogenesis (process by which cartilage is developed).
Human Mesenchymal Stem Cell Culture: Primary human mesenchymal stem cells (hMSCs) were purchased from Lonza (Walkersville, Md.) and expanded in Mesenchymal Stem Cell Growth Media (Lonza). Cells between passage 3 and 6 were used for the experiments.
Compound Screening: Each compound was dissolved in DMSO as a 10 mM stock and used to prepare compound source plates. Serial dilution (1:3, 6-point dose-response curves from 2700 nM to 10 nM) and compound transfer was performed using the ECHO 550 (Labcyte, Sunnyvale, Calif.) into 96-well clear bottom assay plates (Greiner Bio-One) with appropriate DMSO backfill for a final DMSO concentration of 0.03%. hMSCs were plated at 20,000 cells/well in 250 μL/well Incomplete Chondrogenic Induction Medium (Lonza; DMEM, dexamethasone, ascorbate, insulin-transferrin-selenium [ITS supplement], gentamycin-amphotericin [GA-1000], sodium pyruvate, proline and L-glutamine). TGF-β3 (10 ng/mL) was used as a positive control for differentiation while negative control wells were treated with 75 nL DMSO for normalization and calculating EC50 values. Cells were incubated at 37° C. and 5% CO2 for 6 days. To image chondrogenic nodules, the cells were fixed using 4% formaldehyde (Electron Microscopy Sciences), and stained with 2 μg/mL Rhodamine B (Sigma-Aldrich) and 20 μM Nile Red (Sigma-Aldrich) [Johnson K., et. al, A Stem Cell-Based Approach to Cartilage Repair, Science, (2012), 336(6082), 717-721]. The nodules imaged (4 images per well at 4× magnification) by excitation at 531 nm and emission at 625 nm and quantified using the CellInsight CX5 (Thermo Scientific). Number of nodules in each well was normalized to the average of 3 DMSO treated wells on the same plate using Excel (Microsoft Inc.). The normalized averages (fold change over DMSO) of 3 replicate wells for each compound concentration were calculated. Due to solubility limitations of some of the compounds, curve fitting was incomplete leading to inaccurate EC50 determinations.
Using TGF-β3 as a positive control, the concentration of representative compounds required to induce 50% levels of chondrogenesis is reported. In addition, the maximum activity of each compound and the respective dose that each compound reached maximum chondrogenesis activity is reported.

IL-6 = IL-6 inhibition in LPS-stimulated THP-1 cells (HTRF); conditions: Homo sapiens, LPS 500 ng/mL, 22 hours, IL6 HTRF

SMILES: CC(C)CC(=O)Nc1cncc(-c2ccc3[nH]nc(-c4cc5c(-c6ccccc6F)nccc5[nH]4)c3n2)c1 [Compound 58, N-(5-(3-(4-(2-Fluorophenyl)-1H-pyrrolo[3,2-c]pyridin-2-yl)-1H-pyrazolo [4,3-b]pyridin-5-yl)pyridin-3-yl)-3-methylbutanamide]
EC50 [1]: 649 nM
Emax [2]: 36%
EC50 (IL-6): 74 nM

SMILES: Fc1ccccc1-c1nccc2[nH]c(-c3n[nH]c4ccc(-c5cncc(CNCc6ccccc6)c5)nc34)cc12 [Compound 80, N-Benzyl-1-(5-(3-(4-(2-fluorophenyl)-1H-pyrrolo[3,2-c]pyridin-2-yl)-1H-pyrazolo[4,3-b]pyridin-5-yl)pyridin-3-yl)methanamine]
EC50 [1]: 3790 nM
Emax [2]: 110%
EC50 [2]: 10 nM
EC50 (IL-6): 9100 nM

SMILES: CN(C)Cc1cncc(-c2ccc3[nH]nc(-c4cc5c(N6CCCCC6)nccc5[nH]4)c3n2)c1 [Compound 181, N,N-Dimethyl-1-(5-(3-(4-(piperidin-1l-yl)-1H-pyrrolo[3,2-c]pyridin-2-yl)-1H-pyrazolo[4,3-b]pyridin-5-yl)pyridin-3-yl)methanamine]
EC50 [1]: 4160 nM
Emax [2]: 23%
EC50 (IL-6): 2210 nM

SMILES: c1ccc(-c2ccc3[nH]nc(-c4cc5c(N6CCCCC6)nccc5[nH]4)c3n2)nc1 [Compound 196, 3-(4-(Piperidin-1-yl)-1H-pyrrolo[3,2-c]pyridin-2-yl)-5-(pyridin-2-yl)-1H-pyrazolo[4,3-b]pyridine]
EC50 [1]: 3380 nM
Emax [2]: 102%
EC50 [2]: 100 nM
EC50 (IL-6): 1800 nM

SMILES: Cc1ccncc1-c1ccc2[nH]nc(-c3cc4c(N5CCN(C)CC5)nccc4[nH]3)c2n1 [Compound 229, 3-(4-(4-Methylpiperazin-1l-yl)-1H-pyrrolo[3,2-c]pyridin-2-yl)-5-(4-methylpyridin-3-yl)-1H-pyrazolo[4,3-b]pyridine]
EC50 [1]: 828 nM
Emax [2]: 87%
EC50 [2]: 2700 nM
EC50 (IL-6): 108 nM

SMILES: CN1CCN(c2nccc3[nH]c(-c4n[nH]c5ccc(-c6cncc(CN7CCCCC7)c6)nc45)cc23)CC1 [Compound 239, 3-(4-(4-methylpiperazin-1-yl)-1H-pyrrolo[3,2-c]pyridin-2-yl)-5-(5-(piperidin-1-ylmethyl)pyridin-3-yl)-1H-pyrazolo[4,3-b]pyridine]
EC50 [1]: 4280 nM
Emax [2]: 71%
EC50 [2]: 10 nM
EC50 (IL-6): 3980 nM

SMILES: CN1CCN(c2nccc3[nH]c(-c4n[nH]c5ccc(-c6cncnc6)nc45)cc23)CC1 [Compound 251, 3-(4-(4-Methylpiperazin-1l-yl)-1H-pyrrolo[3,2-c]pyridin-2-yl)-5-(pyrimidin-5-yl)-1H-pyrazolo[4,3-b]pyridine]
EC50 [1]: 3070 nM
Emax [2]: 56%
EC50 [2]: 100 nM
EC50 (IL-6): 287 nM

SMILES: c1cncc(-c2ccc3[nH]nc(-c4cc5cnccc5[nH]4)c3n2)c1 [Compound 256, 5-(Pyridin-3-yl)-3-(1H-pyrrolo[3,2-c]pyridin-2-yl)-1H-pyrazolo[4,3-b]pyridine]
EC50 [1]: 251 nM
Emax [2]: 119%
EC50 [2]: 900 nM
EC50 (IL-6): 73 nM

SMILES: CC(C)CC(=O)Nc1cncc(-c2ccc3[nH]nc(-c4cc5c(-c6cc(F)cc(CNS(C)(=O)=O)c6)nccc5[nH]4)c3n2)c1 [Compound 478, N-(5-(3-(4-(3-Fluoro-5-(methylsulfonamidomethyl)phenyl)-1H-pyrrolo[3,2-c]pyridin-2-yl)-1H-pyrazolo[4,3-b]pyridin-5-yl)pyridin-3-yl)-3-methylbutanamide]
EC50 [1]: 624 nM
Emax [2]: 33%
EC50 (IL-6): 108 nM

Second part, led by results:

EC50 [1]: 1210 nM
EC50 (IL-6): 1150 nM
SMILES: CN(C)Cc1cncc(-c2ccc3[nH]nc(-c4cc5c(-c6ccccc6F)nccc5[nH]4)c3n2)c1 [Compound 69, 1-(5-(3-(4-(2-Fluorophenyl)-1H-pyrrolo[3,2-c]pyridin-2-yl)-1H-pyrazolo [4,3-b]pyridin-5-yl)pyridin-3-yl)-N,N-dimethylmethanamine]
Emax [2]: 7%

EC50 [1]: 687 nM
EC50 (IL-6): 95 nM
SMILES: O=C(Nc1cncc(-c2ccc3[nH]nc(-c4cc5c(-c6ccccc6F)nccc5[nH]4)c3n2)c1)C1CC1 [Compound 76, N-(5-(3-(4-(2-Fluorophenyl)-1H-pyrrolo[3,2-c]pyridin-2-yl)-1H-pyrazolo [4,3-b]pyridin-5-yl)pyridin-3-yl)cyclopropanecarboxamide]
Emax [2]: 25%

EC50 [1]: 411 nM
EC50 (IL-6): 84 nM
SMILES: c1cncc(-c2ccc3[nH]nc(-c4cc5c(N6CCCCC6)nccc5[nH]4)c3n2)c1 [Compound 172, 3-(4-(Piperidin-1-yl)-1H-pyrrolo[3,2-c]pyridin-2-yl)-5-(pyridin-3-yl)-1H-pyrazolo[4,3-b]pyridine]
Emax [2]: 29%

EC50 [1]: > 10000 nM
EC50 [2]: 30 nM
EC50 (IL-6): 102 nM
SMILES: CCCCC(=O)Nc1cncc(-c2ccc3[nH]nc(-c4cc5c(N6CCCCC6)nccc5[nH]4)c3n2)c1 [Compound 187, N-(5-(3-(4-(Piperidin-1-yl)-1H-pyrrolo[3,2-c]pyridin-2-yl)-1H-pyrazolo[4,3-b]pyridin-5-yl)pyridin-3-yl)pentanamide]
inhibition at 10 µM ([1]; given for EC50 >10 μM, 10 μM, read-out: percent inhibition at 10 μM): 42.2%
Emax [2]: 54%

EC50 [1]: 3600 nM
EC50 [2]: 30 nM
EC50 (IL-6): 186 nM
SMILES: FC1(F)CCN(Cc2cncc(-c3ccc4[nH]nc(-c5cc6c(N7CCCCC7)nccc6[nH]5)c4n3)c2)C1 [Compound 194, 5-(5-((3,3-Difluoropyrrolidin-1-yl)methyl)pyridin-3-yl)-3-(4-(piperidin-1-yl)-1H-pyrrolo[3,2-c]pyridin-2-yl)-1H-pyrazolo[4,3-b]pyridine]
Emax [2]: 123%

EC50 [1]: 3470 nM
EC50 [2]: 2700 nM
EC50 (IL-6): 462 nM
SMILES: CCNCc1cncc(-c2ccc3[nH]nc(-c4cc5cnccc5[nH]4)c3n2)c1 [Compound 258, N-((5-(3-(1H-Pyrrolo[3,2-c]pyridin-2-yl)-1H-pyrazolo[4,3-b]pyridin-5-yl)pyridin-3-yl)methyl)ethanamine]
Emax [2]: 99%

EC50 [1]: 1690 nM
EC50 [2]: 30 nM
EC50 (IL-6): 866 nM
SMILES: CN(C)Cc1cncc(-c2ccc3[nH]nc(-c4cc5cnccc5[nH]4)c3n2)c1 [Compound 265, 1-(5-(3-(1H-Pyrrolo[3,2-c]pyridin-2-yl)-1H-pyrazolo[4,3-b]pyridin-5-yl)pyridin-3-yl)-N,N-dimethylmethanamine]
Emax [2]: 119%

EC50 [1]: 52 nM
EC50 [2]: 300 nM
EC50 (IL-6): 92 nM
SMILES: FC1(F)CCN(Cc2cncc(-c3ccc4[nH]nc(-c5cc6cnccc6[nH]5)c4n3)c2)C1 [Compound 278, 5-(5-((3,3-Difluoropyrrolidin-1-yl)methyl)pyridin-3-yl)-3-(1H-pyrrolo[3,2-c]pyridin-2-yl)-1H-pyrazolo[4,3-b]pyridine]
Emax [2]: 134%

EC50 [1]: 2350 nM
EC50 [2]: 2700 nM
EC50 (IL-6): 1110 nM
SMILES: c1cc2[nH]c(-c3n[nH]c4ccc(-c5cncnc5)nc34)cc2cn1 [Compound 279, 5-(Pyrimidin-5-yl)-3-(1H-pyrrolo[3,2-c]pyridin-2-yl)-1H-pyrazolo[4,3-b]pyridine]
Emax [2]: 53%

EC50 [1]: 313 nM
EC50 [2]: 10 nM
EC50 (IL-6): 45 nM
SMILES: Cc1ccncc1-c1ccc2[nH]nc(-c3cc4c(-c5cc(F)cc(CNS(C)(=O)=O)c5)nccc4[nH]3)c2n1 [Compound 481, N-(3-Fluoro-5-(2-(5-(4-methylpyridin-3-yl)-1H-pyrazolo[4,3-b]pyridin-3-yl)-1H-pyrrolo[3,2-c]pyridin-4-yl)benzyl)methanesulfonamide]
Emax [2]: 98%
